Laboratory results as given in patent US20070117743A1, “New antitumoral compounds” (priority 2003, published 2007).
Where a SMILES comes first, the peptide text is derived from it. Bridges are numbered along the chain shown (N, C = ends). [ ]: non-standard residue; d: D form. The star is where a group is joined. d(aIle) = CC[C@H](C)[C@@H](N)C(=O)O; d(aThr) = C[C@@H](O)[C@@H](N)C(=O)O; Hexanoyl(5-Me) = CC(C)CCCC(=O)*; d(hCys) = N[C@H](CCS)C(=O)O; Orn = NCCC[C@H](N)C(=O)O; Dhb = C/C=C(\N)C(=O)O

Legend:
Type in all cases: cell-based, human
HT-29 = test: SRB colorimetric assay of cell growth and viability, HT-29; conditions: HT-29 cells, 48 hours exposure, SRB; for GI50: read-out: GI50 (growth inhibition at 50%); for CC50: read-out: LC50 (lethal concentration at 50%)
A-549 = test: SRB colorimetric assay of cell growth and viability, A-549; conditions: A-549 cells, 48 hours exposure, SRB; for GI50: read-out: GI50 (growth inhibition at 50%); for CC50: read-out: LC50 (lethal concentration at 50%)
MB-231 = test: SRB colorimetric assay of cell growth and viability, MB-231; conditions: for TGI (total growth inhibition): MB-231 cells, 48 hours exposure; for GI50: read-out: GI50 (growth inhibition at 50%), MB-231 cells, 48 hours exposure; for CC50: read-out: LC50 (lethal concentration at 50%), MB-231 cells, 48 hours exposure
From the text: The finality of this assay is to interrupt the growth of a “in vitro” tumor cell culture by means a continued exhibition of the cells to the sample to be testing.
A colorimetric type of assay, using sulforhodamine B (SRB) reaction has been adapted for a quantitative measurement of cell growth and viability [following the technique described by Philip Skehan, et al. (1990), New colorimetric cytotoxicity assay for anticancer drug screening, J. Natl. Cancer Inst., 82:1107-1112].
This form of the assay employs 96 well cell culture microplates of 9 mm diameter (Faircloth, 1988; Mosmann, 1983). Most of the cell lines are obtained from American Type Culture Collection (ATCC) derived from different human cancer types.
Cells are maintained in RPMI 1640 10% FBS, supplemented with 0.1 g/l penicillin and 0.1 g/l streptomycin sulfate and then incubated at 37° C., 5% CO2 and 98% humidity. For the experiments, cells were harvested from subconfluent cultures using trypsin and resuspended in fresh medium before plating.
Cells are seeded in 96 well microtiter plates, at 5×10^3 cells per well in aliquots of 195 μL medium, and they are allowed to attach to the plate surface by growing in drug free medium for 18 hours. Afterward, samples are added in aliquots of 5 μL in a ranging from 10 to 10^−8 μg/mL, dissolved in DMSO:EtOH:PBS (0.5:0.5:99). After 48 hours exposure, the antitumor effect are measured by the SRB methodology: cells are fixed by adding 50 μL of cold 50% (wt/vol) trichloroacetic acid (TCA) and incubating for 60 minutes at 4° C. Plates are washed with deionized water and dried. One hundred μL of SRB solution (0.4% wt/vol in 1% acetic acid) is added to each microtiter well and incubated for 10 minutes at room temperature. Unbound SRB is removed by washing with 1% acetic acid. Plates are air dried and bound stain is solubilized with Tris buffer. Optical densities are read on a automated spectrophotometric plate reader at a single wavelength of 490 nm.
The values for mean+/− SD of data from triplicate wells are calculated. Some parameters for cellular responses can be calculated: GI=growth inhibition, TGI=total growth inhibition (cytostatic effect) and LC=cell killing (cytotoxic effect).

Structure (SMILES) | TGI (total growth inhibition) (HT-29) | GI50 (HT-29) | CC50 (HT-29) | TGI (total growth inhibition) (A-549) | GI50 (A-549) | CC50 (A-549) | TGI (total growth inhibition) (MB-231) | GI50 (MB-231) | CC50 (MB-231)
C/C=C1\NC(=O)[C@H](Cc2ccccc2)NC(=O)[C@@H](C(C)C)NC(=O)[C@@H]([C@@H](C)CC)NC(=O)[C@H](NC(=O)[C@H](NC(=O)[C@H](CCCN)NC(=O)[C@H]2CCCN2C(=O)[C@H](NC(=O)[C@@H](NC(=O)[C@@H](NC(=O)[C@H](NC(=O)[C@]23CCC(C)(C)C[C@H]2C2=CC[C@@H]4[C@@]5(C)C[C@@H](O)[C@H](O)C(C)(C)[C@@H]5CC[C@@]4(C)[C@]2(C)CC3)C(C)C)[C@@H](C)O)C(C)C)C(C)C)[C@@H](C)CC)[C@@H](C)OC(=O)[C@H](C(C)C)NC1=O [Compound 101, [AM^14]-KF] | 4.60E−06 Molar | 4.45 µM | 4.86 µM | 5.49E−06 Molar | 5.49 µM | 5.49 µM | 5.49E−06 Molar | – | –
C/C=C1\NC(=O)[C@H](Cc2ccccc2)NC(=O)[C@@H](C(C)C)NC(=O)[C@@H]([C@@H](C)CC)NC(=O)[C@H](NC(=O)[C@H](NC(=O)[C@H](CCCN)NC(=O)[C@H]2CCCN2C(=O)[C@H](NC(=O)[C@@H](NC(=O)[C@@H](NC(=O)[C@H](NC(=O)[C@]23CCC(C)(C)C[C@H]2C2=CC[C@@H]4[C@@]5(C)CC[C@H](O)C(C)(C)[C@@H]5CC[C@@]4(C)[C@]2(C)CC3)C(C)C)[C@@H](C)O)C(C)C)C(C)C)[C@@H](C)CC)[C@@H](C)OC(=O)[C@H](C(C)C)NC1=O [Compound 102, [AO^14]-KF] | 5.54E−06 Molar | 5.54 µM | 5.54 µM | 5.54E−06 Molar | 4.53 µM | 5.54 µM | 5.54E−06 Molar | – | –
C/C=C1\NC(=O)[C@H](Cc2ccccc2)NC(=O)[C@@H](C(C)C)NC(=O)[C@@H]([C@@H](C)CC)NC(=O)[C@H](NC(=O)[C@H](NC(=O)[C@H](CCCN)NC(=O)[C@H]2CCCN2C(=O)[C@H](NC(=O)[C@@H](NC(=O)[C@@H](NC(=O)[C@H](N=C(N(C)C)N(C)C)C(C)C)[C@@H](C)O)C(C)C)C(C)C)[C@@H](C)CC)[C@@H](C)OC(=O)[C@H](C(C)C)NC1=O [Compound 103, [[C(═N(CH3)2)^14]-KF] | 6.83E−06 Molar | – | – | 6.83E−06 Molar | – | – | 6.83E−06 Molar | – | –
C/C=C1\NC(=O)[C@H](Cc2ccccc2)NC(=O)[C@@H](C(C)C)NC(=O)[C@@H]([C@@H](C)CC)NC(=O)[C@H](NC(=O)[C@H](NC(=O)[C@H](CCCN)NC(=O)[C@H]2CCCN2C(=O)[C@H](NC(=O)[C@@H](NC(=O)[C@@H](NC(=O)[C@H](NC(=O)CCCC(C)C)C(C)C)[C@@H](C)O)C(C)C)C(C)C)[C@H](C)CC)[C@@H](C)OC(=O)[C@H](C(C)C)NC1=O [Compound 104, [D-Ile^7]-KF] | 3.39E−07 Molar | 0.314 µM | 0.371 µM | 1.13E−06 Molar | 0.942 µM | 1.51 µM | 5.34E−06 Molar | 5.09 µM | 5.59 µM
C/C=C1\NC(=O)[C@H](Cc2ccccc2)NC(=O)[C@@H](C(C)C)NC(=O)[C@@H]([C@@H](C)CC)NC(=O)[C@H](NC(=O)[C@H](NC(=O)[C@H](CCCN)NC(=O)[C@H]2CCCN2C(=O)[C@H](NC(=O)[C@@H](NC(=O)[C@@H](NC(=O)[C@H](NC(=O)CCCC(C)C)C(C)C)[C@@H](C)O)C(C)C)C(C)C)C(C)C)[C@@H](C)OC(=O)[C@H](C(C)C)NC1=O [Compound 105, [D-Val^7]-KF] ({Hexanoyl(5-Me)}-[dV]TV[dV][dP][Orn][dV][d(aThr)][d(aIle)][dV]F[Dhb]V; ester 8-C) | 8.87E−07 Molar | 0.824 µM | 0.887 µM | 2.60E−06 Molar | 2.28 µM | 3.04 µM | 6.33E−06 Molar | – | –
C/C=C1\NC(=O)[C@H](Cc2ccccc2)NC(=O)[C@@H](C(C)C)NC(=O)[C@@H]([C@@H](C)CC)NC(=O)[C@H](NC(=O)[C@H](NC(=O)[C@@H](CCCN)NC(=O)[C@@H]2CCCN2C(=O)[C@H](NC(=O)[C@@H](NC(=O)[C@@H](NC(=O)[C@H](NC(=O)CCCC(C)C)C(C)C)[C@@H](C)O)C(C)C)C(C)C)[C@@H](C)CC)[C@@H](C)OC(=O)[C@H](C(C)C)NC1=O [Compound 106, [D-Orn^8, L-Pro^9]-KF] | 6.77E−06 Molar | 6.77 µM | 6.77 µM | 6.77E−06 Molar | 6.77 µM | 6.77 µM | 6.77E−06 Molar | ≥ 6.77 µM | ≥ 6.77 µM
C/C=C1\NC(=O)[C@H](Cc2ccccc2)NC(=O)[C@@H](C(C)C)NC(=O)[C@@H]([C@@H](C)CC)NC(=O)[C@H](NC(=O)[C@@H](CS)NC(=O)[C@H](CCCN)NC(=O)[C@H]2CCCN2C(=O)[C@H](NC(=O)[C@H](CS)NC(=O)[C@@H](NC(=O)[C@H](NC(=O)CCCC(C)C)C(C)C)[C@@H](C)O)C(C)C)[C@@H](C)OC(=O)[C@H](C(C)C)NC1=O [Compound 107, [D-Cys^7, L-Cys^11]-KF] ({Hexanoyl(5-Me)}-[dV]TC[dV][dP][Orn][dC][d(aThr)][d(aIle)][dV]F[Dhb]V; ester 8-C) | 6.80E−06 Molar | 6.8 µM | 6.8 µM | 6.80E−06 Molar | 6.8 µM | 6.8 µM | 6.80E−06 Molar | – | –
C/C=C1\NC(=O)[C@H](Cc2ccccc2)NC(=O)[C@@H](C(C)C)NC(=O)[C@@H]([C@@H](C)CC)NC(=O)[C@H](NC(=O)[C@@H](CS)NC(=O)[C@H](CCCN)NC(=O)[C@H]2CCCN2C(=O)[C@@H](CS)NC(=O)[C@@H](NC(=O)[C@@H](NC(=O)[C@H](NC(=O)CCCC(C)C)C(C)C)[C@@H](C)O)C(C)C)[C@@H](C)OC(=O)[C@H](C(C)C)NC1=O [Compound 108, [D-Cys^7, D-Cys^10]-KF] ({Hexanoyl(5-Me)}-[dV]TV[dC][dP][Orn][dC][d(aThr)][d(aIle)][dV]F[Dhb]V; ester 8-C) | 6.53E−06. Molar | 6.53 µM | 6.53 µM | 6.53E−06. Molar | 6.53 µM | 6.53 µM | 6.53E−06. Molar | – | –
C/C=C1\NC(=O)[C@H](Cc2ccccc2)NC(=O)[C@@H](C(C)C)NC(=O)[C@@H]([C@@H](C)CC)NC(=O)[C@H](NC(=O)[C@@H](CCS)NC(=O)[C@H](CCCN)NC(=O)[C@H]2CCCN2C(=O)[C@@H](CCS)NC(=O)[C@@H](NC(=O)[C@@H](NC(=O)[C@H](NC(=O)CCCC(C)C)C(C)C)[C@@H](C)O)C(C)C)[C@@H](C)OC(=O)[C@H](C(C)C)NC1=O [Compound 109, [D-homoCys^7, D-homoCys^10]-KF] ({Hexanoyl(5-Me)}-[dV]TV[d(hCys)][dP][Orn][d(hCys)][d(aThr)][d(aIle)][dV]F[Dhb]V; ester 8-C) | 6.26E−06 Molar | 6.26 µM | 6.26 µM | 6.26E−06 Molar | 6.26 µM | 6.26 µM | 6.26E−06 Molar | – | –
C/C=C1\NC(=O)[C@H](Cc2ccccc2)NC(=O)[C@@H](C(C)C)NC(=O)[C@@H]([C@@H](C)CC)NC(=O)[C@H](NC(=O)[C@H](NC(=O)[C@H](CCCN)NC(=O)[C@H]2CCCN2C(=O)[C@H](NC(=O)[C@@H](NC(=O)[C@@H](NC(=O)[C@H](NC(=O)CCCC(C)C)C(C)C)[C@@H](C)O)C(C)C)C(C)C)[C@@H](C)CC)[C@@H](C)OC(=O)[C@@H](C(C)C)NC1=O [Compound 110, [D-Val^1]-KF] | 5.15E−07 Molar | 0.408 µM | 0.691 µM | 1.13E−06 Molar | 0.879 µM | 1.63 µM | 3.71E−06 Molar | 3.2 µM | 6.28 µM
